According to patent US10294202B2, “Pyrrolidinones as herbicides” (FMC Corporation, priority 2013, dated 2019):

Legend:
johnsongrass = experiment: Test C pre-/postemergence herbicide test; format: in vivo, Sorghum halepense
Method in brief: (§1)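 Visual rating, 0 (no effect) to 100 (complete control), versus untreated controls after 13 to 15 days in the greenhouse. Pre: seeds in loam/sand, sprayed at planting. Post: 1- to 4-leaf plants (2 to 18 cm) in peat-based mix. Compounds in non-phytotoxic solvent plus surfactant.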

velvetleaf = experiment: Test C pre-/postemergence herbicide test; format: in vivo, Abutilon theophrasti
Method in brief: as §1

barnyardgrass [1] = experiment: Test B flooded paddy test; format: in vivo, Echinochloa crus-galli; conditions: 250 g ai/ha, Flood; scale of 0 to 100 where 0 is no effect and 100 is complete control
Method in brief: (§2)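 Scored visually 0–100 (0 no effect, 100 complete control) versus controls after 13 to 15 greenhouse days. Treatment: compound added to paddy water kept 3 cm above soil, on 2-leaf-stage plants.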

oat, wild = experiment: Test C pre-/postemergence herbicide test; format: in vivo, Avena fatua
Method in brief: as §1

crabgrass, large = experiment: Test C pre-/postemergence herbicide test; format: in vivo, Digitaria sanguinalis
Method in brief: as §1

giant foxtail = experiment: Test A pre-/postemergence herbicide test; format: in vivo, Setaria faberii
Method in brief: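 Seeds sown in loam soil/sand blend received a preemergence directed soil spray of test chemical in non-phytotoxic solvent with surfactant; postemergence plants (2–10 cm, one- to two-leaf stage) were sprayed with the same formulation. After about 10 days in greenhouse, injury was rated visually versus untreated controls, 0 (no effect) to 100 (complete control).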

ryegrass, Italian = experiment: Test C pre-/postemergence herbicide test; format: in vivo, Lolium multiflorum
Method in brief: as §1

ragweed = experiment: Test C pre-/postemergence herbicide test; format: in vivo, Ambrosia elatior
Method in brief: as §1

sedge, umbrella = experiment: Test B flooded paddy test; format: in vivo, Cyperus difformis; conditions: 250 g ai/ha, Flood; scale of 0 to 100 where 0 is no effect and 100 is complete control
Method in brief: as §2

barnyardgrass [2] = experiment: Test C pre-/postemergence herbicide test; format: in vivo, Echinochloa crus-galli
Method in brief: as §1

waterhemp = experiment: Test C pre-/postemergence herbicide test; format: in vivo, Amaranthus rudis
Method in brief: as §1

[3] = Postemergence, 31 g ai/ha, scale 0 (no effect) to 100 (complete control)
[4] = Postemergence, 62 g ai/ha, scale 0 to 100 (0 no effect, 100 complete control)
[5] = Postemergence, 125 g ai/ha, scale 0 to 100 (0 no effect, 100 complete control)
[6] = Postemergence, 250 g ai/ha, scale 0 to 100 (0 no effect, 100 complete control)
[7] = Preemergence, 31 g ai/ha, scale 0 to 100, 0 is no effect and 100 is complete control
[8] = Preemergence, 62 g ai/ha, scale 0 to 100
[9] = Preemergence, 125 g ai/ha, scale 0 to 100 (0 no effect, 100 complete control)
[10] = Postemergence, 31 g ai/ha, scale 0 to 100 (0 no effect, 100 complete control)
[11] = Postemergence, 62 g ai/ha, scale 0 (no effect) to 100 (complete control)
[12] = Preemergence, 62 g ai/ha, scale 0 to 100 (0 no effect, 100 complete control)

Compound: O=C1NCC(c2ccccc2)C1C(=O)Nc1ccccc1F (racemic) [Compound 81]
- Plant response rating, Johnsongrass (johnsongrass; [3]): 0
- Plant response rating, Johnsongrass (johnsongrass; [4]): 0
- Plant response rating, Johnsongrass (johnsongrass; [5]): 0
- Plant response rating, Johnsongrass (johnsongrass; [6]): 0
- Johnsongrass plant response rating (johnsongrass; [7]): 0
- Plant response rating, Johnsongrass (johnsongrass; [8]): 0
- Plant response rating, Johnsongrass (johnsongrass; [9]): 0
- Plant response rating (scale of 0 to 100), Johnsongrass (johnsongrass; Preemergence, 250 g ai/ha): 0
- Plant response rating, Velvetleaf (velvetleaf; [3]): 0
- Plant response rating, Velvetleaf (velvetleaf; [4]): 0
- Plant response rating, Velvetleaf (velvetleaf; [5]): 0
- Plant response rating, Velvetleaf (velvetleaf; [6]): 0
- Velvetleaf plant response rating (velvetleaf; [7]): 0
- Plant response rating, Velvetleaf (velvetleaf; [8]): 0
- Plant response rating, Velvetleaf (velvetleaf; [9]): 0
- Plant response rating (scale of 0 to 100), Velvetleaf (velvetleaf; Preemergence, 250 g ai/ha): 0
- Plant response rating, Barnyardgrass (barnyardgrass [1]): 20
- Plant response rating, Oat, Wild (oat, wild; [3]): 0
- Plant response rating, Oat, Wild (oat, wild; [4]): 0
- Plant response rating, Oat, Wild (oat, wild; [5]): 0
- Plant response rating, Oat, Wild (oat, wild; [6]): 0
- Oat, Wild plant response rating (oat, wild; [7]): 0
- Plant response rating, Oat, Wild (oat, wild; [8]): 0
- Plant response rating, Oat, Wild (oat, wild; [9]): 0
- Plant response rating (scale of 0 to 100), Oat, Wild (oat, wild; Preemergence, 250 g ai/ha): 0
- Plant response rating, Crabgrass, Large (crabgrass, large; [3]): 0
- Plant response rating, Crabgrass, Large (crabgrass, large; [4]): 0
- Plant response rating, Crabgrass, Large (crabgrass, large; [5]): 3
- Plant response rating, Crabgrass, Large (crabgrass, large; [6]): 7
- Crabgrass, Large plant response rating (crabgrass, large; [7]): 50
- Plant response rating, Crabgrass, Large (crabgrass, large; [8]): 75
- Plant response rating, Crabgrass, Large (crabgrass, large; [9]): 90
- Plant response rating (scale of 0 to 100), Crabgrass, Large (crabgrass, large; Preemergence, 250 g ai/ha): 95
- Plant response rating, Foxtail, Giant (giant foxtail; Postemergence, 125 g ai/ha, 0 to 100 scale, 0 no effect, 100 complete control): 20
- Plant response rating, Foxtail, Giant (giant foxtail; Postemergence, 500 g ai/ha, 0 to 100 scale (0 no effect, 100 complete control)): 70
- Foxtail, Giant plant response rating (giant foxtail; Preemergence, 125 g ai/ha, visual rating on 0 to 100 scale (0 no effect, 100 complete control)): 30
- Plant response rating, Foxtail, Giant (giant foxtail; preemergence, 500 g ai/ha, 0 to 100 scale): 90
- Plant response rating, Ryegrass, Italian (ryegrass, Italian; [3]): 0
- Plant response rating, Ryegrass, Italian (ryegrass, Italian; [4]): 0
- Plant response rating, Ryegrass, Italian (ryegrass, Italian; [5]): 0
- Plant response rating, Ryegrass, Italian (ryegrass, Italian; [6]): 0
- Ryegrass, Italian plant response rating (ryegrass, Italian; [7]): 0
- Plant response rating, Ryegrass, Italian (ryegrass, Italian; [8]): 0
- Plant response rating, Ryegrass, Italian (ryegrass, Italian; [9]): 0
- Plant response rating (scale of 0 to 100), Ryegrass, Italian (ryegrass, Italian; Preemergence, 250 g ai/ha): 0
- Plant response rating, Ragweed (ragweed; [3]): 0
- Plant response rating, Ragweed (ragweed; [4]): 0
- Plant response rating, Ragweed (ragweed; [5]): 0
- Plant response rating, Ragweed (ragweed; [6]): 0
- Ragweed plant response rating (ragweed; [7]): 0
- Plant response rating, Ragweed (ragweed; [8]): 0
- Plant response rating, Ragweed (ragweed; [9]): 0
- Plant response rating (scale of 0 to 100), Ragweed (ragweed; Preemergence, 250 g ai/ha): 0
- Plant response rating, Sedge, Umbrella (sedge, umbrella): 0

Compound: O=C1NCC(c2cccc(C(F)(F)F)c2)C1C(=O)Nc1ccc(F)cc1F (racemic) [Compound 207]
- Plant response rating, Johnsongrass (johnsongrass; [10]): 0
- Plant response rating, Johnsongrass (johnsongrass; [11]): 0
- Plant response rating, Johnsongrass (johnsongrass; [5]): 0
- Plant response rating, Johnsongrass (johnsongrass; [6]): 0
- Johnsongrass plant response rating (johnsongrass; [7]): 0
- Johnsongrass plant response rating (johnsongrass; [12]): 0
- Plant response rating, Johnsongrass (johnsongrass; [9]): 30
- Plant response rating (scale of 0 to 100), Johnsongrass (johnsongrass; Preemergence, 250 g ai/ha): 60
- Plant response rating, Velvetleaf (velvetleaf; [10]): 0
- Plant response rating, Velvetleaf (velvetleaf; [11]): 0
- Plant response rating, Velvetleaf (velvetleaf; [5]): 0
- Plant response rating, Velvetleaf (velvetleaf; [6]): 0
- Velvetleaf plant response rating (velvetleaf; [7]): 0
- Velvetleaf plant response rating (velvetleaf; [12]): 0
- Plant response rating, Velvetleaf (velvetleaf; [9]): 0
- Plant response rating (scale of 0 to 100), Velvetleaf (velvetleaf; Preemergence, 250 g ai/ha): 0
- Plant response rating, Barnyardgrass (barnyardgrass [2]; [10]): 0
- Plant response rating, Barnyardgrass (barnyardgrass [2]; [11]): 10
- Plant response rating, Barnyardgrass (barnyardgrass [2]; [5]): 35
- Plant response rating, Barnyardgrass (barnyardgrass [2]; [6]): 65
- Barnyardgrass plant response rating (barnyardgrass [2]; [7]): 75
- Plant response rating, Barnyardgrass (barnyardgrass [2]; [8]): 85
- Plant response rating, Barnyardgrass (barnyardgrass [2]; [9]): 85
- Plant response rating (scale of 0 to 100; 0 is no effect, 100 is complete control), Barnyardgrass (barnyardgrass [2]; Preemergence, 250 g ai/ha): 95
- Plant response rating, Oat, Wild (oat, wild; [10]): 0
- Plant response rating, Oat, Wild (oat, wild; [11]): 0
- Plant response rating, Oat, Wild (oat, wild; [5]): 0
- Plant response rating, Oat, Wild (oat, wild; [6]): 0
- Plant response rating, Crabgrass, Large (crabgrass, large; [10]): 10
- Plant response rating, Crabgrass, Large (crabgrass, large; [11]): 15
- Plant response rating, Crabgrass, Large (crabgrass, large; [5]): 40
- Plant response rating, Crabgrass, Large (crabgrass, large; [6]): 65
- Crabgrass, Large plant response rating (crabgrass, large; [7]): 90
- Crabgrass, Large plant response rating (crabgrass, large; [12]): 90
- Plant response rating, Crabgrass, Large (crabgrass, large; [9]): 95
- Plant response rating (scale of 0 to 100), Crabgrass, Large (crabgrass, large; Preemergence, 250 g ai/ha): 95
- Plant response rating, Waterhemp (waterhemp; [10]): 0
- Plant response rating, Waterhemp (waterhemp; [11]): 0
- Plant response rating, Waterhemp (waterhemp; [5]): 0
- Plant response rating, Waterhemp (waterhemp; [6]): 10
- Waterhemp plant response rating (waterhemp; [7]): 0
- Waterhemp plant response rating (waterhemp; [12]): 0
- Plant response rating, Waterhemp (waterhemp; [9]): 85
- Plant response rating (scale of 0 to 100), Waterhemp (waterhemp; Preemergence, 250 g ai/ha): 75
- Plant response rating, Foxtail, Giant (giant foxtail; 125 g ai/ha, visual rating, 0 to 100 scale, 0 no effect, 100 complete control, approximately 10 days, preemergence): 90
- Plant response rating, Foxtail, Giant (giant foxtail; Postemergence, 125 g ai/ha, 0 to 100 scale, 0 is no effect, 100 is complete control): 90
- Foxtail, Giant plant response rating (0 to 100 scale, 0 is no effect, 100 is complete control) (giant foxtail; Postemergence, 500 g ai/ha): 90
- Plant response rating, Foxtail, Giant (giant foxtail; preemergence, 500 g ai/ha, 0 to 100 scale, 0 is no effect and 100 is complete control): 90
- Plant response rating, Ryegrass, Italian (ryegrass, Italian; [10]): 0
- Plant response rating, Ryegrass, Italian (ryegrass, Italian; [11]): 0
- Plant response rating, Ryegrass, Italian (ryegrass, Italian; [5]): 0
- Plant response rating, Ryegrass, Italian (ryegrass, Italian; [6]): 0
- Ryegrass, Italian plant response rating (ryegrass, Italian; [7]): 0
- Ryegrass, Italian plant response rating (ryegrass, Italian; [12]): 0
- Plant response rating, Ryegrass, Italian (ryegrass, Italian; [9]): 0
- Plant response rating (scale of 0 to 100), Ryegrass, Italian (ryegrass, Italian; Preemergence, 250 g ai/ha): 0
- Plant response rating, Ragweed (ragweed; [10]): 0
- Plant response rating, Ragweed (ragweed; [11]): 0
- Plant response rating, Ragweed (ragweed; [5]): 0
- Plant response rating, Ragweed (ragweed; [6]): 15
- Ragweed plant response rating (ragweed; [7]): 0
- Ragweed plant response rating (ragweed; [12]): 0
- Plant response rating, Ragweed (ragweed; [9]): 0
- Plant response rating (scale of 0 to 100), Ragweed (ragweed; Preemergence, 250 g ai/ha): 5
